Patent US20240392055A1, “UV/HEVL-FILTERING SILICONE HYDROGEL CONTACT LENSES” (Alcon Inc., priority 2023, published 2024)
Converted amounts (≈) assume the structure as drawn.

Legend:
[1] = Absorption edge of visible light photoinitiators; assay type: physicochemical
Text: Table 5 provides information about the photoinitiators used in this example.

[2] = Solubility of photoinitiator in lens formulation; assay type: physicochemical
Method: Four lens formulations without HEVL-absorbing benzotriazole-containing vinylic monomers are prepared to have the following compositions shown in Table 6. TTMB-Sn is not soluble in the formulation at room temperature but is soluble at 40° C. So, the photo-rheology experiment is conducted at 40° C. for this photoinitiator instead of the typical 25° C. (for other three photoinitiators).

[3] = empirical substituent parameter of R group on benzotriazole ring; cited from earlier work
[4] = UV/visible absorption of dilute monomer solutions (absorption peak); assay type: physicochemical; details: HEVL absorption peak; dilute solution in PrOH
[5] = Solubility of HEVL-absorbing vinylic monomers in 1-propanol; assay type: physicochemical
Text: It is also reported that there are correlations between lower melting points and compound solubility (Bathori, N. B. Acta Cryst., 2014, A70, C990). Changing the R group from —Cl to —CF3 should both shift the absorbance due to a greater electron withdrawing capability, and increase the solubility by reducing the ability of the compound to crystalize due to the bulky —CF3 group. […] UV23 would seem to be a good candidate because the —CF3 group further red shifts the absorbance and the solubility is much improved.

| Structure (SMILES) | Abs. edge (nm) [1] [nm] | σpara [3] | Absorption Peak (nm) [4] [nm] | Solubility in PrOH [5] [µg/mL] | also measured |
| --- | --- | --- | --- | --- | --- |
| C[CH2][Ge]([CH2]C)([C](=O)c1ccc(OC)cc1)[C](=O)c1ccc(OC)cc1 [BMBDE-Ge, Bis(4-methoxybenzoyl)diethylgermanium] | 470 |  |  |  |  |
| C[CH2][Ge]([CH2]C)([C](=O)c1ccccc1)[C](=O)c1ccccc1 [DBDE-Ge, dibenzoyldiethylgermanium] | 480 |  |  |  |  |
| CCc1ccccc1[C](=O)[Ge]([C](=O)c1ccccc1CC)([C](=O)c1ccccc1CC)[C](=O)c1ccccc1CC [TEB-Ge, tetrakis(2-ethylbenzoyl)-germanium] | 490 |  |  |  |  |
| Cc1cc(C)c([C](=O)[Sn]([C](=O)c2c(C)cc(C)cc2C)([C](=O)c2c(C)cc(C)cc2C)[C](=O)c2c(C)cc(C)cc2C)c(C)c1 [TTMB-Sn, tetrakis(2,4,6-trimethylbenzoyl)stannane] | 510 |  |  |  | solubility in the formulation ([2]; 40° C.): soluble; solubility in the formulation ([2]; room temperature): not soluble |
| C=CC(=O)OCCCOc1cc(-n2nc3ccc(C(F)(F)F)cc3n2)c(O)c(C(C)(C)C)c1 [UV23, 2-[2′-Hydroxy-3′-tert-butyl-5′-(3′-acryloyloxypropoxy)phenyl]-5-trifluoromethyl-2H-benzotriazole] |  | 0.54 | 418 | > 3300 |  |
| C=C(C)C(=O)OCCCOc1cc(-n2nc3ccc(Cl)cc3n2)c(O)c(C(C)(C)C)c1 [UV28, 2-{2′-Hydroxy-3′-tert-butyl-5′-[3′-methacryloyloxypropoxy]phenyl}-5-chloro-2H-benzotriazole] |  | 0.23 | 416 | 1500 (≈ 3.38 mM) |  |
